Earlier results as cited in patent US9717704B2, “Method of treating, delaying and/or preventing Alzheimer's Disease” (Smartfish AS, priority 2013, dated 2017).

How the values were obtained:
amyloid-beta = conditions: cell lines (Marambaud, Zhao et al. 2005)
[1] = system: PBMCs / macrophages of AD patients; conditions: in vitro (Mizwicki et al. 2013)

Row | Compound | proteasome degradation of amyloid-beta (amyloid-beta) | Abeta phagocytosis [1] | deregulation of inflammatory genes [1]
1 | Oc1ccc(/C=C/c2cc(O)cc(O)c2)cc1 [Resveratrol, 3,5,4′-trihydroxy-trans-stilbene] | promote proteasome degradation of amyloid-beta |  | 
2 | CC/C=C\C[C@H](O)/C=C/C=C\C=C\C=C\[C@@H](O)[C@@H](O)C/C=C\CCC(=O)O [resolvin D1] |  | repair | repair the deregulation of these genes
3 | C=C1/C(=C\C=C2/CCC[C@]3(C)[C@@H]([C@H](C)CCCC(C)(C)O)CC[C@@H]23)C[C@@H](O)C[C@@H]1O [1,25dihydroxyvitamin D3] |  | repair | repair the deregulation of these genes
